Source: PMC11111408, “Concurrent inhibition of oncogenic and wild-type RAS-GTP for cancer therapy” (Nature, 2024)
Where two headings read alike, the source gives them in different places.

Tested on: panel of 183 cancer cell lines
Assay: Cell panel of 183 cancer cell lines, viability (CTG) at Crown Bioscience
Assay type: cell-based
Conditions: Homo sapiens
Excerpt: The panel consisted of cell lines with any substitution at position 12 of KRAS, NRAS or HRAS (KRAS(G12X), NRAS(G12X), HRAS(G12X)); substitutions in KRAS, NRAS or HRAS at any position other than 12, 13 and 61 (KRAS(other/VUS), NRAS(other/VUS), HRAS(other/VUS)); other oncogenic mutations in the RAS pathway (ABL1, ALK, ARAF, BRAF, CBL, EGFR, ERBB2, ERBB3, ERBB4, ERRFI1, FGFR1, FGFR2, FGFR3, FGFR4, FLT3, HRAS, IGF1R, JAK2, KIT, MAP2K1, MAP2K2, MAPK1, MET, NF1, NRAS, NTRK1, NTRK2, NTRK3, PDGFRA, PTPN11, RAC1, RAF1, RASA1, RET, RIT1, ROS1 and SOS1); and no oncogenic mutations in the RAS pathway. […] Cells were incubated for 120 h, and cell viability was determined using the CellTiter-Glo Luminescent Cell Viability Assay (CTG) (Promega, G7572) according to the manufacturer’s instructions.

## CCn1c(-c2cc(N3CCN(C4CC4)CC3)cnc2[C@H](C)OC)c2c3cc(ccc31)-c1csc(n1)C[C@H](NC(=O)[C@H]1[C@@H]3COC[C@@H]31)C(=O)N1CCC[C@H](N1)C(=O)OCC(C)(C)C2 [RMC-7977]
JHH-2, read-out: RMC-7977 EC50 (M), JHH2, ROS1 fusion, Liver
  EC50: 5.37e-09 M
KARPAS-299, read-out: RMC-7977 EC50 (M), KARPAS299, ALK fusion, Blood/lymphoma
  EC50: 9.47e-08 M
KATO III, read-out: RMC-7977 EC50 (M), KATOIII, RAS pathway WT, Stomach
  EC50: 1.48e-08 M
KHOS/NP, read-out: RMC-7977 EC50 (M), KHOSNP, KRAS A59T, Bone
  EC50: 1.02e-09 M
KM 12L4, read-out: RMC-7977 EC50 (M), KM12L4, NTRK1 fusion, Large intestine/Colorectum
  EC50: 5.14e-09 M
KRAS^G12X mutant cell lines, read-out: median EC50
  EC50: 2.4e-09 M
KYSE-150, read-out: RMC-7977 EC50 (M), KYSE150, ERBB3 mut, HN/Esophagus
  EC50: 5.92e-09 M
KYSE-270, KYSE270, RTKMUT/fusion, read-out: EC50
  EC50: 5.99e-09 M
KYSE-270, read-out: RMC-7977 EC50 (M), KYSE270, EGFR mut, HN/Esophagus
  EC50: 5.99e-09 M
KYSE-410, read-out: RMC-7977 EC50 (M), KYSE410, KRAS G12C, HN/Esophagus
  EC50: 4.07e-09 M
LC-2-ad, read-out: RMC-7977 EC50 (M), LC2AD, RET fusion, Lung
  EC50: 5.15e-09 M
LCLC-97TM1, read-out: RMC-7977 EC50 (M), LCLC97TM1, KRAS G12V, Lung
  EC50: 3.47e-10 M
LCLC-103H, read-out: RMC-7977 EC50 (M), LCLC103H, NF1 LOF, Lung
  EC50: 3.67e-07 M
LN-229, read-out: RMC-7977 EC50 (M), LN229, PTPN11 mut, Brain&Nerves
  EC50: 6.69e-09 M
LS174T, read-out: RMC-7977 EC50 (M), LS174T, KRAS G12D, Large intestine/Colorectum
  EC50: 2.24e-08 M
LS180, read-out: RMC-7977 EC50 (M), LS180, KRAS G12D, Large intestine/Colorectum
  EC50: 1.62e-08 M
LS-123, read-out: RMC-7977 EC50 (M), LS123, KRAS G12S, Large intestine/Colorectum
  EC50: 1.29e-09 M
LS-513, read-out: RMC-7977 EC50 (M), LS513, KRAS G12D, Large intestine/Colorectum
  EC50: 1.2e-09 M
LS-1034, read-out: RMC-7977 EC50 (M), LS1034, KRAS A146T, Large intestine/Colorectum
  EC50: 2.51e-08 M
LoVo, read-out: RMC-7977 EC50 (M), LOVO, KRAS G13D, Large intestine/Colorectum
  EC50: 5.62e-08 M
MCF7, read-out: RMC-7977 EC50 (M), MCF7, RAS pathway WT, Breast
  EC50: > 1e-06 M
MES-SA, read-out: RMC-7977 EC50 (M), MESSA, RAS pathway WT, Uterus
  EC50: > 1e-06 M
MFE-296, read-out: RMC-7977 EC50 (M), MFE296, RAS pathway WT, Uterus
  EC50: > 1e-06 M
MIA PaCa-2, read-out: RMC-7977 EC50 (M), MIAPACA2, KRAS G12C, Lung
  EC50: 4.27e-09 M
MKN-1, read-out: RMC-7977 EC50 (M), MKN1, RAS pathway WT, Stomach
  EC50: 4.87e-08 M
MKN-45, read-out: RMC-7977 EC50 (M), MKN45, MET amp, Stomach
  EC50: 8.64e-09 M
MeWo, read-out: RMC-7977 EC50 (M), MEWO, NF1 LOF, Skin
  EC50: 4.86e-09 M
NCI-H23, read-out: RMC-7977 EC50 (M), NCIH23, KRAS G12C, Lung
  EC50: 8.51e-10 M
NCI-H358, read-out: RMC-7977 EC50 (M), NCIH358, KRAS G12C, Lung
  EC50: 6.31e-10 M
NCI-H441, read-out: RMC-7977 EC50 (M), NCIH441, KRAS G12V, Lung
  EC50: 3.89e-10 M
NCI-H460, read-out: RMC-7977 EC50 (M), NCIH460, KRAS Q61H, Lung
  EC50: 6.17e-09 M
NCI-H508, read-out: RMC-7977 EC50 (M), NCIH508, BRAF mut other, Large intestine/Colorectum
  EC50: 1.21e-07 M
NCI-H520, read-out: RMC-7977 EC50 (M), NCIH520, RAS pathway WT, Lung
  EC50: 2.85e-08 M
NCI-H716, read-out: RMC-7977 EC50 (M), NCIH716, KRAS R97I, Large intestine/Colorectum
  EC50: 2.75e-09 M
NCI-H727, read-out: RMC-7977 EC50 (M), NCIH727, KRAS G12V, Lung
  EC50: 7.24e-10 M
NCI-H747, read-out: RMC-7977 EC50 (M), NCIH747, KRAS G13D, Large intestine/Colorectum
  EC50: 1.82e-09 M
NCI-H1155, read-out: RMC-7977 EC50 (M), NCIH1155, KRAS Q61H, Lung
  EC50: > 1e-06 M
NCI-H1299, read-out: RMC-7977 EC50 (M), NCIH1299, NRAS Q61K, Lung
  EC50: 1.78e-09 M
NCI-H1373, read-out: RMC-7977 EC50 (M), NCIH1373, KRAS G12C, Lung
  EC50: 1.78e-09 M
NCI-H1395, read-out: RMC-7977 EC50 (M), NCIH1395, BRAF mut other, Lung
  EC50: > 1e-06 M
NCI-H1581, read-out: RMC-7977 EC50 (M), NCIH1581, RAS pathway WT, Lung
  EC50: 5.55e-08 M
NCI-H1650, read-out: RMC-7977 EC50 (M), NCIH1650, EGFR mut, Lung
  EC50: 4.04e-08 M
NCI-H1666, read-out: RMC-7977 EC50 (M), NCIH1666, BRAF mut other, Lung
  EC50: 8.2e-09 M
NCI-H1792, read-out: RMC-7977 EC50 (M), NCIH1792, KRAS G12C, Lung
  EC50: 1.91e-09 M
NCI-H1838, read-out: RMC-7977 EC50 (M), NCIH1838, NF1 LOF, Lung
  EC50: 8.76e-09 M
NCI-H1915, read-out: RMC-7977 EC50 (M), NCIH1915, HRAS Q61L, Lung
  EC50: 1.62e-08 M
NCI-H1944, read-out: RMC-7977 EC50 (M), NCIH1944, KRAS G13D, Lung
  EC50: 3.16e-08 M
NCI-H1975, read-out: RMC-7977 EC50 (M), NCIH1975, EGFR mut, Lung
  EC50: 4.07e-09 M
NCI-H1993, read-out: RMC-7977 EC50 (M), NCIH1993, MET amp, Lung
  EC50: 4.57e-09 M
NCI-H2009, read-out: RMC-7977 EC50 (M), NCIH2009, KRAS G12A, Lung
  EC50: 5.75e-09 M
NCI-H2087, read-out: RMC-7977 EC50 (M), NCIH2087, NRAS Q61K, Lung
  EC50: 5.89e-10 M
NCI-H2110, read-out: RMC-7977 EC50 (M), NCIH2110, PTPN11 mut, Lung
  EC50: 7.95e-09 M
NCI-H2122, read-out: RMC-7977 EC50 (M), NCIH2122, KRAS G12C, Lung
  EC50: 9.33e-10 M
NCI-H2172, read-out: RMC-7977 EC50 (M), NCIH2172, RAS pathway WT, Lung
  EC50: 4.73e-07 M
NCI-H2228, read-out: RMC-7977 EC50 (M), NCIH2228, ALK fusion, Lung
  EC50: 1.41e-08 M
NCI-H3122, read-out: RMC-7977 EC50 (M), NCIH3122, ALK fusion, Lung
  EC50: 4.62e-09 M
NCI-H3255, read-out: RMC-7977 EC50 (M), NCIH3255, EGFR mut, Lung
  EC50: 6.28e-09 M
NF1^LOF cell lines, read-out: median EC50
  EC50: 3.25e-08 M
NRAS and HRAS mutant cell lines, read-out: median EC50
  EC50: 6.76e-09 M
NUGC-4, read-out: RMC-7977 EC50 (M), NUGC4, NF1 LOF, Stomach
  EC50: 3.16e-09 M
